Experimental data published in patent publication US20130296224A1, “METHOD FOR TREATMENT OF INFLAMMATORY DISEASE AND DISORDER” (HealOr Ltd., priority 2011, published 2013).
The star is where a group is joined. Palmitoyl = CCCCCCCCCCCCCCCC(=O)*; Myristoyl = CCCCCCCCCCCCCC(=O)*

Columns and labels:
activated keratinocytes = test: Cytokine secretion in LPS, TNFα or IL-17 activated keratinocytes treated with peptide PKCα inhibitors (ELISA); type: cell-based, BALB/C mice; conditions: for cytokine secretion in keratinocytes stimulated by LPS, TNFα, or IL-17: medium collected after 48 hr, ELISA; for cytokine secretion from LPS and TNFα activated keratinocytes: FIGS. 19 to 23; for cytokine secretion from IL-17A activated keratinocytes: FIGS. 24 to 27
Procedure: To determine their effects, keratinocytes were derived from newborn BALB/C mice skin. The cells were incubated for 5 days in 24 wells plate. Cells were then incubated with PBS −/− as control or stimulated by LPS, TNFα, or IL-17. PKCα inhibitors were added as indicated. Medium containing secreted cytokines was collected after 48 hr and analyzed using ELISA. FIG. 50 is a tabular summary of cytokine secretion.

macrophages (Iba-1) = test: Macrophage infiltration in skin wound (Iba-1 staining); type: in vivo, C57BL/6J mouse; conditions: daily treatment, five days post-wounding
Procedure: The effect of MPDY-1 on macrophage infiltration was also shown by Iba-1 staining. Iba-1 is a general marker for macrophages. […] As above, a two-cm longitudinal incision was done on the upper back of a C57BL/6J mouse. Following wounding, a sterile pad was sutured to the mouse's skin. Animals were treated daily with MPDY-1 (n=6). Five days post-wounding, when inflammatory phase reaches its peak, the mice were sacrificed, skin tissues were embedded in paraffin and immunohistochemical staining was performed utilizing anti-Iba-1 antibodies.

IKK = test: TNFα induced IKK activation in keratinocytes (Western blot phospho-IKKa/b Ser176/180); type: cell-based, Murine; conditions: 1 hour pretreatment, TNFα 35 ng/ml 15 minutes
Procedure: Murine primary keratinocytes were grown for 4 days to full confluence in Low Ca^+2 MEM. Cells were pretreated with designated concentration of MPDY-1 as described in the figure for 1 hour, prior to TNFα induction. Following MPDY-1 pretreatment, cells were incubated with TNFα 35 ng/ml for 15 minutes. Reaction was stopped by adding ice-cold dPBS−/− and keratinocytes were homogenized in RIPA buffer. Samples were subjected to SDS PAGE Western Blot analysis, utilizing phospho-IKKa/b (Ser176/180 antibody).

[1] = test system: activated macrophages (MAC-2); test: Macrophage activation in skin wound (MAC-2 staining); type: in vivo, C57BL/6J mouse; conditions: daily treatment, 5 days; control vs 10 μg p=0.0028
Procedure: The effect of MPDY-1 on macrophage activation was also shown by MAC-2 staining. MAC-2 is a specific marker for activated macrophages. […] A two-cm longitudinal incision was done as described above. Animals were treated daily with DPBS^−/− (Control) or MPDY-1 in the specified concentrations (n=6). After 5 days immunohistochemical staining was performed utilizing anti-MAC-2 antibodies. Bar […]. (*p(control Vs. MPDY-1 10 μg)=0.0028).

EAE mice = test: Experimental allergic encephalomyelitis (EAE), MOG35-55/CFA immunized mice; type: in vivo, C57BL/6J mice; parameters: EAE severity / average group score at the end of the experiment (day 42): dose or concentration left out as unconfirmed; conditions: for EAE score on the initial day (in brackets): scale 0-6; for Score on day 29 / Score on day 37 / Score on day 18: EAE scale 0-6; for Number of dead mice during 49 days: n=7 per group
[2] = test system: histamine induced pruritus; test: Histamine prick test model of pruritus; type: in vivo, healthy volunteers; conditions: topical application on forearm, photographs at 0, 10, 20, 30 minutes
Procedure: Forearms of individual subjects were injected with histamine solution and placebo. The formulation of Example 4 was topically applied with MPDY-1 at various concentrations and pruritus was assessed over a time course as shown in FIGS. 39-42.
This test was performed by placing a drop of a solution containing a possible allergen on the skin, and a series of scratches or needle pricks allow the solution to enter the skin. The extract enters into the outer layer of the skin (epidermis) using a fine needle (such as a. 26G disposable needle). This testing is not painful, and generally there is no bleeding involved since the needle only scratches the surface of the skin. If the skin develops a red, raised itchy area (called a wheal), it is as a result of allergic reaction to that allergen. This is called a positive reaction. A drop of extract is introduced through a fine needle (such as a No. 26 disposable needle). The test causes no discomfort and minimal trauma so that controls and negative test show only the site of the prick; if anything.
26G needles were utilized to introduce histamine stock (Histatrol Positive Control Histamine, 1 mg/ml, code #HIST14999V, Trupharm). The test was conducted on healthy volunteers in a double-blind, randomized test. The formulations were applied on the forearms. […]

[3] = test system: splenocytes stimulated with LPS; test: Cytokine secretion in splenocytes stimulated with LPS, treated with PKCδ activator; type: cell-based
Procedure: (§1) PKCδ activators were also shown to have an anti-inflammatory effect on keratinocytes and splenocytes. Keratinocytes were derived from newborn BALB/C mice skin. The cells were incubated for 5 days in 24 wells plate. Cells were then incubated with PBS−/− as control or stimulated by LPS or TNFα. The PKCδ inhibitor DAP-1 (SEQ ID NO: 34) was added. Medium containing secreted cytokines was collected after 48 hr and analyzed using ELISA. FIG. 43 is a tabular summary showing cytokine secretion in splenocytes stimulated with LPS. FIG. 44 is a tabular summary of cytokine secretion in keratinocytes stimulated by TNFα.

[4] = test system: keratinocytes stimulated by TNFα; test: Cytokine secretion in stimulated keratinocytes treated with PKCδ activator (ELISA); type: cell-based, BALB/C mice; conditions: medium collected after 48 hr
Procedure: as §1

[5] = 0.1 mg/kg i.p. three times a week
[6] = 1 mg/kg i.p. three times a week

Substance: Palmitoyl-Phe-Ala-Arg-Lys-Gly-Ala-Leu-Arg-Gln-OH-acetate salt (Palmitoyl-FARKGALRQ-OH; also: acetate salt) [PPDY-1]
- cytokine secretion in keratinocytes stimulated by LPS, TNFα, or IL-17 (activated keratinocytes): effective in decreasing cytokine secretion

Substance: H-Thr-Leu-Asn-Pro-Gln-Trp-Glu-Ser-OH (H-TLNPQWES-OH) [AIP-1]
- cytokine secretion in keratinocytes stimulated by LPS, TNFα, or IL-17 (activated keratinocytes): effective in decreasing cytokine secretion

Substance: Myristoyl-Phe-Ala-Arg-Lys-Gly-Ala-Leu-Arg-Gln-OH (Myristoyl-FARKGALRQ-OH; SMILES CCCCCCCCCCCCCC(=O)N[C@@H](Cc1ccccc1)C(=O)N[C@@H](C)C(=O)N[C@@H](CCCNC(=N)N)C(=O)N[C@@H](CCCCN)C(=O)NCC(=O)N[C@@H](C)C(=O)N[C@@H](CC(C)C)C(=O)N[C@@H](CCCNC(=N)N)C(=O)N[C@@H](CCC(N)=O)C(=O)O) [MPDY-1]
- macrophage infiltration (Iba-1 positive cells per field) (macrophages (Iba-1)): dose dependent effect
- TNFα induced IKK activation in keratinocytes (IKK): significantly reduced
- concentration exhibiting the strongest inhibition of IKK activation (lowest tested) (IKK): 0.1 mg/mL
- activation of macrophages (MAC-2 positive cells per field) [1]: significantly inhibited
- cytokine secretion from LPS and TNFα activated keratinocytes (activated keratinocytes): decrease cytokine secretion
- cytokine secretion from IL-17A activated keratinocytes (activated keratinocytes): decrease cytokine secretion
- cytokine secretion in keratinocytes stimulated by LPS, TNFα, or IL-17 (activated keratinocytes): effective in decreasing cytokine secretion
- EAE severity (EAE mice): reduced EAE severity
- EAE score / clinical symptoms compared to the control group (EAE mice; 0.1 mg/kg): lower score during most of the experiment days
- The initial day (first illness signs) (EAE mice; [5]): 13 days
- EAE score on the initial day (in brackets) (EAE mice; [5]): 1.000
- Score on day 29 (EAE mice; 0.1 mg/kg i.p.): 2.000
- Score on day 37 (EAE mice; 0.1 mg/kg i.p.): 1.500
- The initial day (first illness signs) (EAE mice; [6]): 11 days
- Number of dead mice during 49 days (EAE mice; 1 mg/kg i.p.): 2
- EAE score on the initial day (in brackets) (EAE mice; 1 mg/kg i.p.): 0.214
- redness, inflammation and pruritus compared with control over the time course [2]: significantly attenuated redness, inflammation and pruritus

Substance: H-Phe-Ala-Arg-Lys-Gly-Ala-Leu-Arg-Gln-OH (H-FARKGALRQ-OH) [AWOT-1]
- cytokine secretion in keratinocytes stimulated by LPS, TNFα, or IL-17 (activated keratinocytes): effective in decreasing cytokine secretion

Substance: Myristoyl-Thru-Arg-Lys-Arg-Gln-Arg-Ala-Met-Arg-Arg-Arg-Val-His-Gln-Ile-Asn-Gly-OH (Myristoyl-TRKRQRAMRRRVHQING-OH; SMILES CCCCCCCCCCCCCC(=O)N[C@H](C(=O)N[C@@H](CCCNC(=N)N)C(=O)N[C@@H](CCCCN)C(=O)N[C@@H](CCCNC(=N)N)C(=O)N[C@@H](CCC(N)=O)C(=O)N[C@@H](CCCNC(=N)N)C(=O)N[C@@H](C)C(=O)N[C@@H](CCSC)C(=O)N[C@@H](CCCNC(=N)N)C(=O)N[C@@H](CCCNC(=N)N)C(=O)N[C@@H](CCCNC(=N)N)C(=O)N[C@H](C(=O)N[C@@H](Cc1c[nH]cn1)C(=O)N[C@@H](CCC(N)=O)C(=O)N[C@H](C(=O)N[C@@H](CC(N)=O)C(=O)NCC(=O)O)[C@@H](C)CC)C(C)C)[C@@H](C)O) [MPE-1]
- EAE severity (EAE mice): reduced EAE severity
- The initial day (first illness signs) (EAE mice; [5]): 11 days
- EAE score on the initial day (in brackets) (EAE mice; [5]): 0.429
- The initial day (first illness signs) (EAE mice; [6]): 10 days
- Number of dead mice during 49 days (EAE mice; 1 mg/kg i.p.): 4
- EAE score on the initial day (in brackets) (EAE mice; 1 mg/kg i.p.): 0.429
- average group score at the end of the experiment (day 42) (EAE mice; control group 2.86): 2.00

Substance: CRAMP: comparison treatment in the EAE study (0.2 and 2 mg/kg); not further described (ISRLAGLLRKGGEKIGEKLKKIGQKIKNFFQKLVPQPE; Cathelin-related antimicrobial peptide; UniProt P51437 135-172, looked up) [reference compound]
- The initial day (first illness signs) (EAE mice; 0.2 mg/kg i.p. three times a week): 10 days
- Score on day 18 (EAE mice; 0.2 mg/kg i.p.): 3.214
- Score on day 29 (EAE mice; 0.2 mg/kg i.p.): 2.000
- Score on day 37 (EAE mice; 0.2 mg/kg i.p.): 2.571
- Number of dead mice during 49 days (EAE mice; 0.2 mg/kg i.p.): 2
- EAE score on the initial day (in brackets) (EAE mice; 0.2 mg/kg i.p.): 0.571
- The initial day (first illness signs) (EAE mice; 2 mg/kg i.p. three times a week): 11 days
- Score on day 18 (EAE mice; 2 mg/kg i.p.): 2.643
- Score on day 29 (EAE mice; 2 mg/kg i.p.): 2.643
- Score on day 37 (EAE mice; 2 mg/kg i.p.): 2.143
- Number of dead mice during 49 days (EAE mice; 2 mg/kg i.p.): 2
- EAE score on the initial day (in brackets) (EAE mice; 2 mg/kg i.p.): 0.143

Substance: Myristoyl-Phe-Ala-Arg-Lys-Gly-Ala-Leu-OH-trifluoracetate salt (Myristoyl-FARKGAL-OH; also: trifluoracetate salt) [AIP-2]
- cytokine secretion in keratinocytes stimulated by LPS, TNFα, or IL-17 (activated keratinocytes): effective in decreasing cytokine secretion

Substance: Myristoyl-Phe-Ala-Arg-Lys-Gly-Ala-Leu-OH (Myristoyl-FARKGAL-OH; SMILES CCCCCCCCCCCCCC(=O)N[C@@H](Cc1ccccc1)C(=O)N[C@@H](C)C(=O)N[C@@H](CCCNC(=N)N)C(=O)N[C@@H](CCCCN)C(=O)NCC(=O)N[C@@H](C)C(=O)N[C@@H](CC(C)C)C(=O)O) [MPDY-1 sh]
- cytokine secretion from LPS and TNFα activated keratinocytes (activated keratinocytes): decrease cytokine secretion
- cytokine secretion from IL-17A activated keratinocytes (activated keratinocytes): decrease cytokine secretion

Substance: H-Phe-Ala-Arg-Lys-Gly-Ala-Leu-Arg-Gln-OH-acetate salt (H-FARKGALRQ-OH; also: acetate salt) [PDY-1]
- cytokine secretion from LPS and TNFα activated keratinocytes (activated keratinocytes): decrease cytokine secretion
- cytokine secretion from IL-17A activated keratinocytes (activated keratinocytes): decrease cytokine secretion

Substance: H-His-Phe-Glu-Asp-Trp-Ile-Asp-His-Phe-Glu-Asp-Trp-Ile-Asp-OH (H-HFEDWIDHFEDWID-OH) [DAP-1]
- inflammatory cytokine secretion in splenocytes [3]: significantly decease inflammatory cytokine secretion
- inflammatory cytokine secretion in keratinocytes [4]: significantly decease inflammatory cytokine secretion
